Source: patent US9637470B2, “Treatment for substance use disorders and stress disorders” (Baylor College of Medicine, priority 2013, dated 2017)
“Also recorded” adds a separate entry of the source. Like-named read-outs stand apart in the source and are kept apart here.

Experiments:
[1] = Chronic (13 week) toxicity testing in rats; conditions: rat, in vivo, read-out: no adverse effects level (NOAEL)
CYP 2B6 = test: CYP induction, 2B6; format: in vitro ADME
[2] = biological target: recombinant human serotonin transporter protein (SERT) (Homo sapiens, UniProt P31645); test: IC50 binding profile, competitive inhibition assay, SERT
Chain of recombinant human serotonin transporter protein (SERT) (P31645 whole entry): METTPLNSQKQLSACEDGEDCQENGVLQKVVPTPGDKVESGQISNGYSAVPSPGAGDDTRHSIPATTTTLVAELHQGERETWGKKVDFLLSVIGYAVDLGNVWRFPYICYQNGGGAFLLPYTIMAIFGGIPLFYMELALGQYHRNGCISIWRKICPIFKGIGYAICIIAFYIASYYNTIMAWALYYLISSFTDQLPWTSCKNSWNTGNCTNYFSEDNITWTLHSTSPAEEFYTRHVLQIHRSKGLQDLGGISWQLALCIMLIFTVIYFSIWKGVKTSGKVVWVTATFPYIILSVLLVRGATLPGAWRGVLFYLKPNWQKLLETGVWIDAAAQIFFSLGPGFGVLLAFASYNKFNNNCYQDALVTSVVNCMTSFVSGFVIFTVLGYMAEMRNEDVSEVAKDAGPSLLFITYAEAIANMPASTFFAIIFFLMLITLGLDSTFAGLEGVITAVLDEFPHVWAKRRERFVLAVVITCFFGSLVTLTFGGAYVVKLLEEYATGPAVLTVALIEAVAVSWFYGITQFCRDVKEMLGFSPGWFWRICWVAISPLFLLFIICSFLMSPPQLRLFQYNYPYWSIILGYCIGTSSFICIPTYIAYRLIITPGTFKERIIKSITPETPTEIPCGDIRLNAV
Protocol: (§1) Amitifadine and DOV 102,677 are enantiomers and differ only in the stereochemistry of the cyclopropyl pyrrolidine carbon to which the dichlorophenyl group is bonded. In addition to the structural differences, the compounds differ greatly in their IC50 binding profiles at the three corresponding monoamine transporter proteins. The IC50 binding profiles were measured for each of the compounds in Table 5 by competitive inhibition assays using recombinant human serotonin transporter protein, recombinant human norepinephrine transporter protein, and recombinant human dopamine transporter protein Compounds were screened at a range of concentrations and were fit to a curve to determine IC50 values, the concentration at which 50% inhibition occurs.

rats [3] = test: Self-administration in rats (abuse potential); conditions: doses up to 10 mg/kg/infusion, cocaine positive control
CYP450 2C19 = CYP450 2C19 (Homo sapiens, UniProt P33261); test: CYP450 inhibition, 2C19; format: in vitro ADME
Chain of CYP450 2C19 (P33261 whole entry): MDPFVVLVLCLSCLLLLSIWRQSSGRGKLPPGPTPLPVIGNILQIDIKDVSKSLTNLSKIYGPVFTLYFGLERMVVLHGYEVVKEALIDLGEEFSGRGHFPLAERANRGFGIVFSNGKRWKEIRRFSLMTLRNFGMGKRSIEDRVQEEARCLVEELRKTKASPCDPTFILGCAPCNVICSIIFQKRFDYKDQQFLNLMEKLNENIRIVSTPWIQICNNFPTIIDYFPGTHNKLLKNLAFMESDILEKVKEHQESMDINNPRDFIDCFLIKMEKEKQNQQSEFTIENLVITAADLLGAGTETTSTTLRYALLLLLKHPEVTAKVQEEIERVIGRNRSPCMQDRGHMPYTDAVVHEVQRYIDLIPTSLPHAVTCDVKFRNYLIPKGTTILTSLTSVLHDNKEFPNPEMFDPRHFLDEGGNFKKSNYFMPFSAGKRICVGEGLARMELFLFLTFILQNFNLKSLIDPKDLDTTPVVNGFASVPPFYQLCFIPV

CYP450 2C9 = CYP450 2C9 (Homo sapiens, UniProt P11712); test: CYP450 inhibition, 2C9; format: in vitro ADME
Chain of CYP450 2C9 (P11712 whole entry): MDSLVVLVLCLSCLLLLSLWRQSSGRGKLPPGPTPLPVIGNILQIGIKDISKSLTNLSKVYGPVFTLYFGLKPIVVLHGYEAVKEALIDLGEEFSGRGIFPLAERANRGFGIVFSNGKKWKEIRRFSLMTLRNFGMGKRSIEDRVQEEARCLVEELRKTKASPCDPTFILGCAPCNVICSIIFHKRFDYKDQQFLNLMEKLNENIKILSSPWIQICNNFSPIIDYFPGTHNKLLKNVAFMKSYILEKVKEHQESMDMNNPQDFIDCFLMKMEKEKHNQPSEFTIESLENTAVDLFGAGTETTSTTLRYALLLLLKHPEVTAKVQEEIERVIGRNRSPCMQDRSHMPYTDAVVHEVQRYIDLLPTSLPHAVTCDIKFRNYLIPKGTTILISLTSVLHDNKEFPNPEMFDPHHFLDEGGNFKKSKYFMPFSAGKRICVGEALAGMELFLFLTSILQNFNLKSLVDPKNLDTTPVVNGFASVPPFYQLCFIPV

CYP450 2C8 = CYP450 2C8 (Homo sapiens, UniProt P10632); test: CYP450 inhibition, 2C8; format: in vitro ADME
Chain of CYP450 2C8 (P10632 whole entry): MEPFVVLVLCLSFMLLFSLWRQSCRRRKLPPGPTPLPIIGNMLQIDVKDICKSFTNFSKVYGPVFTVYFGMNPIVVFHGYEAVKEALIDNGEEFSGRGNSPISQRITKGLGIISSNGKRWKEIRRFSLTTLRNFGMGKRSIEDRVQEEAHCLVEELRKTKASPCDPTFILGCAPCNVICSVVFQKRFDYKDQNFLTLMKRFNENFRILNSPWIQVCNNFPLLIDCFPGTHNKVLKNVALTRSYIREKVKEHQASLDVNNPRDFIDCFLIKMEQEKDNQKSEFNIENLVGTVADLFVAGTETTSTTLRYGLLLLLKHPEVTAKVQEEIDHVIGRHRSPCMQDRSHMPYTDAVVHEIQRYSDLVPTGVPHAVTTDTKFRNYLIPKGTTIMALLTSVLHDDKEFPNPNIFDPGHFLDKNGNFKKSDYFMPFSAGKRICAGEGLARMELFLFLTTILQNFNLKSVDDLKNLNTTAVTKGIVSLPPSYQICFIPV

healthy volunteers = test: Single ascending dose study in healthy volunteers; format: in vivo, human
Protocol: A single ascending dose, double-blind, placebo controlled study enrolled 50 participants divided into 10 per dosing group. In each group of 10 volunteers, 7 received active medication and 3 received placebo. The doses tested were 10, 25, 75, 150, and 300 mg. […] Across most doses, the elimination half-life was […].

[4] = biological target: recombinant human norepinephrine transporter protein (NET) (Homo sapiens, UniProt P23975); test: IC50 binding profile, competitive inhibition assay, NET
Chain of recombinant human norepinephrine transporter protein (NET) (P23975 whole entry): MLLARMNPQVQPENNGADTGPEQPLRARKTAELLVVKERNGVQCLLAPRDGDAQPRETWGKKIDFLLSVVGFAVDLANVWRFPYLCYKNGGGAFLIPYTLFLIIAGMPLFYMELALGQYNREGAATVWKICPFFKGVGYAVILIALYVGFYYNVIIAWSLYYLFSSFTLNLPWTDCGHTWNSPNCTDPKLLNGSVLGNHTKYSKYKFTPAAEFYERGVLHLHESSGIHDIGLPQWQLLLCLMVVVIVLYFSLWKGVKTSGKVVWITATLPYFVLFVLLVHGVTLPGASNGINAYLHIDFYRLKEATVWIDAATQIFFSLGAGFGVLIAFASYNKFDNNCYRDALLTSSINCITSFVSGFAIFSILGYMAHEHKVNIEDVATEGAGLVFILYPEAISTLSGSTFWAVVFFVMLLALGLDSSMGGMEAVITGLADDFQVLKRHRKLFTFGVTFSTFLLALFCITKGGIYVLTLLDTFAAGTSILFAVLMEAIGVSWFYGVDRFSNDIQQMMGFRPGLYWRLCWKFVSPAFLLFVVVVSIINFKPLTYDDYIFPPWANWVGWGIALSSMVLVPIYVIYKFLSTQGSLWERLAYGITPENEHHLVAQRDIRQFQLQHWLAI
Protocol: as §1

CYP 1A2 = test: CYP induction, 1A2; format: in vitro ADME
[5] = PK, distribution and excretion in rat; format: in vivo; conditions: for half-life: in vivo
AMES = test: Genotoxicity testing, AMES
PK parameters in mouse = conditions: in vivo
[6] = Chronic (13 week) toxicity testing in dogs; conditions: dog, in vivo, read-out: no adverse effects level (NOAEL)
mouse lymphoma = test: Genotoxicity testing, mouse lymphoma chromosome aberration
[7] = biological target: recombinant human dopamine transporter protein (DAT) (Homo sapiens, UniProt Q01959); test: IC50 binding profile, competitive inhibition assay, DAT
Chain of recombinant human dopamine transporter protein (DAT) (Q01959 whole entry): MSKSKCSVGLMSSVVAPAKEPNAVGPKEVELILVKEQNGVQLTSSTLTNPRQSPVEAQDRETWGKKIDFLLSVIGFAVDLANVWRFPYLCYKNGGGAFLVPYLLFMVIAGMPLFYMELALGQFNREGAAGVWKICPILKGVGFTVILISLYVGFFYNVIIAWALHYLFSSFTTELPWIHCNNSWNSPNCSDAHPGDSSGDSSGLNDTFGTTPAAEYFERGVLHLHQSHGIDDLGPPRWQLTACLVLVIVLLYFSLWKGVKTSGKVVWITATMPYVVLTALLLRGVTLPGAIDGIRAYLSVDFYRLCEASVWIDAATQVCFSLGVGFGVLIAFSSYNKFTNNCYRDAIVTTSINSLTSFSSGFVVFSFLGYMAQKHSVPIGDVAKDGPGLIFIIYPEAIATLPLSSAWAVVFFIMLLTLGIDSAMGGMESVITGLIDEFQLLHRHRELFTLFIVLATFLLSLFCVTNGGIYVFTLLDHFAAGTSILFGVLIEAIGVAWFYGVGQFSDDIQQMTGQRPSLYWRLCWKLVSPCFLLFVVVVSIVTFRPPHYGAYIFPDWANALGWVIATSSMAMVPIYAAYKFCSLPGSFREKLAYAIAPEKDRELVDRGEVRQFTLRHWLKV
Protocol: as §1

[8] = Teratogenicity study (segment II) in rats; conditions: rat, in vivo
dogs = test: Telemetry studies in dogs (ECG, QT); conditions: doses up to 20 mg/kg
[9] = Human pharmacokinetic studies; conditions: in vivo, read-out: elimination half-life (converted)
Protocol: These studies will use double-blind, placebo-controlled experimental designs. Human pharmacokinetic studies indicate that EC2 has an elimination half-life of approximately 7 hours, allowing twice daily dosing.

rats [10] = test: Irwin test for neurotoxicity in rats; format: in vivo, rat; conditions: up to 90 mg/kg
[11] = tested on: 56 receptors, channels, and transporters; test: Receptor binding studies, panel of 56 receptors, channels, and transporters; conditions: 10 μM; all sites except σ1 and 5-HT2B
Source text: (§2) Binding at σ1 is not problematic, as SSRIs are known to have similar activities.

σ1 = σ1 (Homo sapiens, UniProt Q99720); test: Receptor binding studies, sigma σ1; conditions: at 10 uM
Chain of σ1 (Q99720 whole entry): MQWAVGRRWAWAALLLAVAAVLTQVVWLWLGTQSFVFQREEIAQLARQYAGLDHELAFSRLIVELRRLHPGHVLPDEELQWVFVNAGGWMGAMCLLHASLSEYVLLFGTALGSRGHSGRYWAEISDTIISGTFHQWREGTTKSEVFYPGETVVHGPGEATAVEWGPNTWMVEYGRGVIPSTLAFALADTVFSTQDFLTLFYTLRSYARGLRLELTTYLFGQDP
Source text: as §2

5-HT2B = 5-HT2B (Homo sapiens, UniProt P41595); test: Functional activity at 5-HT2B receptor
Chain of 5-HT2B (P41595 whole entry, species assumed): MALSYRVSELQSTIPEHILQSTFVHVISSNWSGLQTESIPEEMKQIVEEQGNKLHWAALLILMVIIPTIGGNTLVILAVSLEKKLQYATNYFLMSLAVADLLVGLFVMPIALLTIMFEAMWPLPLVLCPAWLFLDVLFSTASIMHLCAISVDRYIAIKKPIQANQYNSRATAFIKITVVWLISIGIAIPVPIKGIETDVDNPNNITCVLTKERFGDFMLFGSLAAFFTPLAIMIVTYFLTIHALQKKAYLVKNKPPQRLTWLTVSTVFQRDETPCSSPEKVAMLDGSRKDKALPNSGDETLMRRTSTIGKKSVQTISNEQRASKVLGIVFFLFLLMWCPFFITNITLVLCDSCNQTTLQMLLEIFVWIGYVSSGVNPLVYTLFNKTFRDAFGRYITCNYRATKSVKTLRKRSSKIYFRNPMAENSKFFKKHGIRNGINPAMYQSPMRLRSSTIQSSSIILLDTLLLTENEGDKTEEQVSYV
Source text: as §2

rats [12] = test: Respiratory testing in rats; format: in vivo, rat; conditions: up to 90 mg/kg

c1ccc2cc([C@H]([C@H]3CCCNC3)n3ncnn3)ccc2c1 [Example Compound 2, (3S)-3-[(S)-naphthalen-2-yl(2H-tetrazol-2-yl)methyl]piperidine]
NOAEL at 13 week [1]: 60 mg/kg
induction of CYP 2B6 (CYP 2B6): does not induce
IC50 [2]: 0.02 µM
self-administration (rats [3]): not self-administered
inhibition of CYP450 2C19 (CYP450 2C19): does not inhibit
inhibition of CYP450 2C9 (CYP450 2C9): does not inhibit
inhibition of CYP450 2C8 (CYP450 2C8): does not inhibit
plasma concentration versus dose (healthy volunteers; single dose 10, 25, 75, 150, and 300 mg): proportional to dose
primary adverse effects (healthy volunteers; single dose, increasing in prevalence at 75 mg and higher): nausea, dizziness, and headache
safety (healthy volunteers; single doses up to 300 mg): safe
IC50 [4]: 0.01 µM
induction of CYP 1A2 (CYP 1A2): does not induce
Kp ([5]; brain, rat, after oral dosing, read-out: AUC ratio (brain/plasma)): 0.45
accumulation in tissue ([5]; rat, after oral administration): does not accumulate; also recorded: without significant accumulation
tissue distribution ([5]; rat, after oral administration): widely distributed across most tissues
half-life ([5]; rat, T1/2): 3.7 h
half-life ([5]; rat, po, elimination half-life in brain): 12.6 h
half-life ([5]; rat, po, elimination half-life in plasma): 5 h
route of excretion ([5]; rodents): mainly excreted in feces
genotoxicity, AMES (AMES): negative
half-life (PK parameters in mouse): 1.9 h
NOAEL at 13 week [6]: 6 mg/kg
genotoxicity, mouse lymphoma chromosome aberration (mouse lymphoma): negative
IC50 [7]: 0.011 µM
NOAEL ([8]; read-out: NOAEL fetal development): 90 mg/kg/day
NOAEL ([8]; read-out: NOAEL fetal growth): 30 mg/kg/day
NOAEL ([8]; read-out: NOAEL fetal viability): 90 mg/kg/day
NOAEL ([8]; read-out: NOAEL maternal toxicity): 30 mg/kg/day
effects on ECG or QT (dogs): no effects
half-life [9]: ~7 h
Irwin test for neurotoxicity (rats [10]): negative
binding at the other sites of the panel [11]: no significant binding
inhibition of binding at σ1 (σ1): 74 % inhibition
activity at 5-HT2B receptor (5-HT2B): antagonist activity
respiratory testing (rats [12]): negative
